Source: patent publication US9730944B2, “Antiviral activity of novel bicyclic heterocycles” (priority 2010, dated 2017)
Converted amounts (≈) assume the structure as drawn.

Assays:
[1] = system: hRV-2; test: Rhinovirus type 2 antiviral assay in Hela Rh cells, MTS readout; type: cell-based, Human rhinovirus; details: Rhinovirus A, HRV2, HeLa Rh, Hela Rh cells; read-out: hRV-2 EC50
[2] = system: hRV-9; test: Rhinovirus type 9 antiviral assay in Hela Rh cells, MTS readout; type: cell-based, Human rhinovirus; details: Human rhinovirus sp., HRV9, HeLa Rh, Hela Rh cells; read-out: hRV-9 EC50
[3] = system: hRV-14; test: Rhinovirus type 14 antiviral assay in Hela Rh cells, MTS readout; type: cell-based, Human rhinovirus; details: Rhinovirus B, HRV14, HeLa Rh, Hela Rh cells; read-out: hRV-14 EC50
[4] = system: hRV-15; test: Rhinovirus type 15 antiviral assay in Hela Rh cells, MTS readout; type: cell-based, Human rhinovirus; details: Human rhinovirus sp., HRV15, HeLa Rh, Hela Rh cells; read-out: hRV-15 EC50
[5] = system: hRV-29; test: Rhinovirus type 29 antiviral assay in Hela Rh cells, MTS readout; type: cell-based; details: Human rhinovirus sp., HRV29, HeLa Rh, Hela Rh cells; read-out: hRV-29 EC50
[6] = system: hRV-39; test: Rhinovirus type 39 antiviral assay in Hela Rh cells, MTS readout; type: cell-based, Human rhinovirus; details: Human rhinovirus sp., HRV39, HeLa Rh, Hela Rh cells; read-out: hRV-39 EC50
[7] = system: hRV-41; test: Rhinovirus type 41 antiviral assay in Hela Rh cells, MTS readout; type: cell-based, Human rhinovirus; details: Human rhinovirus sp., HRV41, HeLa Rh, Hela Rh cells; read-out: hRV-41 EC50
[8] = system: hRV-42; test: Rhinovirus type 42 antiviral assay in Hela Rh cells, MTS readout; type: cell-based, Human rhinovirus; details: Human rhinovirus sp., HRV42, HeLa Rh, Hela Rh cells; read-out: hRV-42 EC50
[9] = system: hRV-45; test: Rhinovirus type 45 antiviral assay in Hela Rh cells, MTS readout; type: cell-based, Human rhinovirus; details: Human rhinovirus sp., HRV45, HeLa Rh, Hela Rh cells; read-out: hRV-45 EC50
[10] = system: hRV-63; test: Rhinovirus type 63 antiviral assay in Hela Rh cells, MTS readout; type: cell-based, Human rhinovirus; details: Human rhinovirus sp., HRV63, HeLa Rh, Hela Rh cells; read-out: hRV-63 EC50
[11] = system: hRV-70; test: Rhinovirus type 70 antiviral assay in Hela Rh cells, MTS readout; type: cell-based, Human rhinovirus; details: Human rhinovirus sp., HRV70, HeLa Rh, Hela Rh cells; read-out: hRV-70 EC50
[12] = system: hRV-72; test: Rhinovirus type 72 antiviral assay in Hela Rh cells, MTS readout; type: cell-based, Human rhinovirus; details: Human rhinovirus sp., HRV72, HeLa Rh, Hela Rh cells; read-out: hRV-72 EC50
[13] = system: hRV-85; test: Rhinovirus type 85 antiviral assay in Hela Rh cells, MTS readout; type: cell-based, Human rhinovirus; details: Human rhinovirus sp., HRV85, HeLa Rh, Hela Rh cells; read-out: hRV-85 EC50
[14] = system: hRV-86; test: Rhinovirus type 86 antiviral assay in Hela Rh cells, MTS readout; type: cell-based, Human rhinovirus; details: Human rhinovirus sp., HRV86, HeLa Rh, Hela Rh cells; read-out: hRV-86 EC50
[15] = Cytostatic/cytotoxic effect in Hela Rh cells (rhinovirus methodology, MTS); details: human, CC50, Hela Rh cells

`Nc1nc(N2CCN(C(=O)COc3cccc([N+](=O)[O-])c3)CC2)c2nc(CCc3ccc(F)cc3)sc2n1` [Example 131, 5-amino-2-[2-(4-fluorophenyl)ethyl]-7-(4-[2-(3-nitrophenoxy)acetyl]piperazin-1-yl)-thiazolo[5,4-d]pyrimidine] showed an EC50 [1] of 2.5 mg/L (≈ 4.65 µM), an EC50 [2] of 2.11 mg/L (≈ 3.93 µM) and an EC50 [3] greater than 50 mg/L. For the same compound, the EC50 [4] was greater than 50 mg/L, the EC50 [5] was greater than 50 mg/L and the EC50 [6] was 1.52 mg/L (≈ 2.83 µM). It also gave an EC50 [7] greater than 50 mg/L, an EC50 [8] of 12.3 mg/L (≈ 22.8 µM) and an EC50 [9] of 9.05 mg/L (≈ 16.8 µM). For the same compound, the EC50 [10] was 34.5 mg/L (≈ 64.3 µM), the EC50 [11] was 15.3 mg/L (≈ 28.4 µM) and the EC50 [12] was 37.7 mg/L (≈ 70.2 µM). The EC50 [13] was 7.26 mg/L (≈ 13.5 µM), the EC50 [14] was 7.07 mg/L (≈ 13.2 µM) and the CC50 [15] was greater than 50 mg/L.
Compound `Nc1nc(N2CCN(C(=O)COc3ccc(OC(F)(F)F)cc3)CC2)c2nc(CCc3ccc(F)cc3)sc2n1` [Example 226, 1-(4-(5-amino-2-(4-fluorophenethyl)thiazolo[5,4-d]pyrimidin-7-yl)piperazin-1-yl)-2-(4-(trifluoromethoxy)phenoxy)ethanone] has an EC50 [1] greater than 50 mg/L, an EC50 [2] greater than 50 mg/L and an EC50 [3] greater than 50 mg/L. The EC50 [4] was greater than 50 mg/L, the EC50 [5] was greater than 50 mg/L and the EC50 [6] was greater than 50 mg/L. The EC50 [7] was greater than 50 mg/L, the EC50 [8] was greater than 50 mg/L and the EC50 [9] was greater than 50 mg/L. For the same compound, the EC50 [10] was greater than 50 mg/L, the EC50 [11] was greater than 50 mg/L and the EC50 [12] was greater than 50 mg/L. The EC50 [13] was 29.9 mg/L (≈ 51.9 µM), the EC50 [14] was greater than 50 mg/L and the CC50 [15] was greater than 50 mg/L.
`COC(=O)c1ccc(OCC(=O)N2CCN(c3nc(N)nc4sc(CCc5ccc(F)cc5)nc34)CC2)cc1` [Example 225, methyl 4-(2-(4-(5-amino-2-(4-fluorophenethyl)thiazolo[5,4-d]pyrimidin-7-yl)piperazin-1-yl)-2-oxoethoxy)benzoate] showed an EC50 [1] of 1.12 mg/L (≈ 2.03 µM), an EC50 [2] greater than 50 mg/L and an EC50 [3] greater than 50 mg/L. For the same compound, the EC50 [4] was greater than 50 mg/L, the EC50 [5] was greater than 50 mg/L and the EC50 [6] was greater than 50 mg/L. It also gave an EC50 [7] greater than 50 mg/L, an EC50 [8] greater than 50 mg/L and an EC50 [9] of 43.1 mg/L (≈ 78.3 µM). For the same compound, the EC50 [10] was 39.7 mg/L (≈ 72.1 µM), the EC50 [11] was greater than 50 mg/L and the EC50 [12] was greater than 50 mg/L. The EC50 [13] was 14.6 mg/L (≈ 26.5 µM), the EC50 [14] was greater than 50 mg/L and the CC50 [15] was 5.34 mg/L (≈ 9.7 µM).
`Nc1nc(N2CCN(C(=O)COc3ccc(O)cc3)CC2)c2nc(CCc3ccc(F)cc3)sc2n1` [Example 224, 1-(4-(5-amino-2-(4-fluorophenethyl)thiazolo[5,4-d]pyrimidin-7-yl)piperazin-1-yl)-2-(4-hydroxyphenoxy)ethanone] gave an EC50 [1] of 0.66 mg/L (≈ 1.3 µM), an EC50 [2] of 0.89 mg/L (≈ 1.75 µM) and an EC50 [3] of 3.44 mg/L (≈ 6.76 µM). It also gave an EC50 [4] of 2.32 mg/L (≈ 4.56 µM), an EC50 [5] of 0.49 mg/L (≈ 0.963 µM) and an EC50 [6] of 0.32 mg/L (≈ 0.629 µM). It also gave an EC50 [7] of 2.26 mg/L (≈ 4.44 µM), an EC50 [8] greater than 50 mg/L and an EC50 [9] of 4.55 mg/L (≈ 8.95 µM). The EC50 [10] was 25.4 mg/L (≈ 49.8 µM), the EC50 [11] was 8.62 mg/L (≈ 16.9 µM) and the EC50 [12] was greater than 50 mg/L. The EC50 [13] was 2.09 mg/L (≈ 4.11 µM), the EC50 [14] was 20 mg/L (≈ 39.4 µM) and the CC50 [15] was greater than 50 mg/L.
`Nc1nc(N2CCN(C(=O)COc3ccc(F)cc3)CC2)c2nc(-c3ccc(F)cc3)sc2n1` [Example 233, 1-(4-(5-amino-2-(4-fluorophenyl)thiazolo[5,4-d]pyrimidin-7-yl)piperazin-1-yl)-2-(4-fluorophenoxy)ethanone] gave an EC50 [1] of less than 0.02 mg/L, an EC50 [2] of less than 0.02 mg/L and an EC50 [3] of less than 0.02 mg/L. It also gave an EC50 [4] of less than 0.02 mg/L, an EC50 [5] of less than 0.02 mg/L and an EC50 [6] of less than 0.02 mg/L. The EC50 [7] was less than 0.39 mg/L, the EC50 [8] was less than 0.39 mg/L and the EC50 [9] was less than 0.39 mg/L. For the same compound, the EC50 [10] was less than 0.39 mg/L, the EC50 [11] was less than 0.39 mg/L and the EC50 [12] was 0.88 mg/L (≈ 1.82 µM). The EC50 [13] was less than 0.39 mg/L, the EC50 [14] was less than 0.39 mg/L and the CC50 [15] was greater than 50 mg/L.
Work on `CC(=O)c1ccc(OCC(=O)N2CCN(c3nc(N)nc4sc(CCc5ccc(F)cc5)nc34)CC2)cc1` [Example 227, 2-(4-acetylphenoxy)-1-(4-(5-amino-2-(4-fluorophenethyl)thiazolo[5,4-d]pyrimidin-7-yl)piperazin-1-yl)ethanone] yielded an EC50 [1] of 0.26 mg/L (≈ 0.486 µM), an EC50 [2] of 0.56 mg/L (≈ 1.05 µM) and an EC50 [3] greater than 50 mg/L. For the same compound, the EC50 [4] was greater than 50 mg/L, the EC50 [5] was 4.8 mg/L (≈ 8.98 µM) and the EC50 [6] was 0.3 mg/L (≈ 0.561 µM). For the same compound, the EC50 [7] was greater than 50 mg/L, the EC50 [8] was greater than 50 mg/L and the EC50 [9] was 35.4 mg/L (≈ 66.1 µM). For the same compound, the EC50 [10] was 30.6 mg/L (≈ 57.2 µM), the EC50 [11] was greater than 50 mg/L and the EC50 [12] was greater than 50 mg/L. For the same compound, the EC50 [13] was 2.19 mg/L (≈ 4.1 µM), the EC50 [14] was 4.59 mg/L (≈ 8.59 µM) and the CC50 [15] was greater than 50 mg/L.
